Assays:
[1] = system: Pseudomonas aeruginosa ATCC 27853; test: MBEC assay, biofilm inhibition (prevention of biofilm formation), MBEC bioFILM PA panel; format: cell-based; design: MBEC-Biofilm Inhibition, Without compound 9 / MBEC-Biofilm Inhibition, Without compound 6 / MBEC-Biofilm Inhibition, Without compound 2 / MBEC-Biofilm Inhibition, Without compound 7 / MBEC-Biofilm Inhibition, With 0.01% compound 7 in 5% EtOH/PBS / MBEC-Biofilm Inhibition, without salt of compound 2 / MBEC-Biofilm Inhibition, with 0.1% salt of compound 2 / MBEC-Biofilm Inhibition, without salt of compound 6: unit not given here; details: for MBEC-Biofilm Inhibition, without salt of compound 2 / MBEC-Biofilm Inhibition, with 0.1% salt of compound 2: Table 9; for MBEC-Biofilm Inhibition, without salt of compound 2 / MBEC-Biofilm Inhibition, without salt of compound 6: antibiotic or antibiotic combination alone; for MBEC-Biofilm Inhibition, without salt of compound 2 / MBEC-Biofilm Inhibition, with 0.1% salt of compound 2 / MBEC-Biofilm Inhibition, without salt of compound 6 / MBEC-Biofilm Inhibition, with 0.1% salt of compound 6: value per component; for MBEC-Biofilm Inhibition, without salt of compound 2: separated by /; for MBEC-Biofilm Inhibition, with 0.1% salt of compound 2: antibiotic or combination plus 0.1% salt of compound 2; for MBEC-Biofilm Inhibition, without salt of compound 6 / MBEC-Biofilm Inhibition, with 0.1% salt of compound 6: Table 10; for MBEC-Biofilm Inhibition, with 0.1% salt of compound 6: antibiotic or combination plus 0.1% salt of compound 6; for MBEC-Biofilm Inhibition, Without compound 1 / MBEC-Biofilm Inhibition, Without compound 2 / MBEC-Biofilm Inhibition, Without compound 3 / MBEC-Biofilm Inhibition, Without compound 6 / MBEC-Biofilm Inhibition, Without compound 7 / MBEC-Biofilm Inhibition, Without compound 9: antibiotic alone
[2] = system: Pseudomonas aeruginosa ATCC 27853; test: MBEC assay, biofilm elimination, MBEC bioFILM PA panel; format: cell-based; design: MBEC-Biofilm Elimination, Without compound 2 / MBEC-Biofilm Elimination, With 0.01% compound 2 in 5% EtOH/PBS / MBEC-Biofilm Elimination, Without compound 7 / MBEC-Biofilm Elimination, With 0.01% compound 7 in 5% EtOH/PBS / MBEC-Biofilm Elimination, Without compound 1 / MBEC-Biofilm Elimination, With 0.01% compound 1 in 5% EtOH/PBS / MBEC-Biofilm Elimination, without salt of compound 2 / MBEC-Biofilm Elimination, with 0.1% salt of compound 2: unit not given here; details: for MBEC-Biofilm Elimination, without salt of compound 2 / MBEC-Biofilm Elimination, with 0.1% salt of compound 2: Table 9; for MBEC-Biofilm Elimination, without salt of compound 2 / MBEC-Biofilm Elimination, without salt of compound 6: antibiotic or antibiotic combination alone; for MBEC-Biofilm Elimination, without salt of compound 2 / MBEC-Biofilm Elimination, with 0.1% salt of compound 2 / MBEC-Biofilm Elimination, without salt of compound 6 / MBEC-Biofilm Elimination, with 0.1% salt of compound 6: value per component; for MBEC-Biofilm Elimination, with 0.1% salt of compound 2: antibiotic or combination plus 0.1% salt of compound 2; for MBEC-Biofilm Elimination, without salt of compound 6 / MBEC-Biofilm Elimination, with 0.1% salt of compound 6: Table 10; for MBEC-Biofilm Elimination, with 0.1% salt of compound 6: antibiotic or combination plus 0.1% salt of compound 6; for MBEC-Biofilm Elimination, Without compound 1 / MBEC-Biofilm Elimination, Without compound 2 / MBEC-Biofilm Elimination, Without compound 3 / MBEC-Biofilm Elimination, Without compound 6 / MBEC-Biofilm Elimination, Without compound 7 / MBEC-Biofilm Elimination, Without compound 9: antibiotic alone
[3] = with 0.01% compound 1 in 5% EtOH/PBS

| SMILES | MBEC-Biofilm Inhibition, without salt of compound 2 [1] | MBEC-Biofilm Inhibition, with 0.1% salt of compound 2 [1] | MBEC-Biofilm Inhibition, without salt of compound 6 [1] | MBEC-Biofilm Inhibition, with 0.1% salt of compound 6 [1] | MBEC-Biofilm Inhibition, Without compound 1 [1] | MBEC-Biofilm Inhibition, Without compound 2 [1] | MBEC-Biofilm Inhibition, Without compound 3 [1] | MBEC-Biofilm Inhibition, Without compound 6 [1] | MBEC-Biofilm Inhibition, Without compound 7 [1] | MBEC-Biofilm Inhibition, Without compound 9 [1] | MBEC-Biofilm Inhibition, With 0.01% compound 1 in 5% EtOH/PBS [1, 3] | MBEC-Biofilm Inhibition, With 0.01% compound 2 in 5% EtOH/PBS [1] | MBEC-Biofilm Inhibition, With 0.01% compound 7 in 5% EtOH/PBS [1] | MBEC-Biofilm Inhibition, With 0.05% compound 3 in 5% EtOH/PBS [1] | MBEC-Biofilm Inhibition, With 0.05% compound 6 in 5% EtOH/PBS [1] | MBEC-Biofilm Inhibition, With 0.1% w/v compound 9 in PBS [1] | MBEC-Biofilm Elimination, without salt of compound 2 [2] | MBEC-Biofilm Elimination, with 0.1% salt of compound 2 [2] | MBEC-Biofilm Elimination, without salt of compound 6 [2] | MBEC-Biofilm Elimination, with 0.1% salt of compound 6 [2] | other results |
| --- | --- | --- | --- | --- | --- | --- | --- | --- | --- | --- | --- | --- | --- | --- | --- | --- | --- | --- | --- | --- | --- |
| NC[C@H]1O[C@H](O[C@H]2[C@H](O)[C@@H](O[C@H]3O[C@H](CO)[C@@H](O)[C@H](N)[C@H]3O)[C@H](N)C[C@@H]2N)[C@H](N)C[C@@H]1O [TO, tobramycin] | >2 | >2 | >2 | >2 | >2 | >2 | >2 | >2 | >2 | 2 | 0.5-2 | >2 | >2 | >2 | >2 | >2 | >2 | >2 | >2 | >2 | MBEC ([1]; antibiotic or combination alone, concentrations in order of the combination): >2 µg/mL; MBEC, μg/mL +Compound 1 ([1]; antibiotic plus Compound 1): 0.5 to 2 µg/mL; MBEC, μg/mL +Compound 2 ([1]; antibiotic plus Compound 2): >2 µg/mL; MBEC, μg/mL +Compound 7 ([1]; antibiotic plus Compound 7): >2 µg/mL; (% reduction) +Compound 1 ([1]; reduction of antibiotic or combination required to prevent biofilm formation): > 50%; value in parentheses after MBEC-Biofilm Inhibition with 0.01% compound 1 (% reduction as in Table 2) [1, 3]: ≥ 50; MBEC-Biofilm Elimination, Without compound 1 [2]: >2; MBEC-Biofilm Elimination, Without compound 2 [2]: >2; MBEC-Biofilm Elimination, Without compound 3 [2]: >2; MBEC-Biofilm Elimination, Without compound 6 [2]: >2; MBEC-Biofilm Elimination, Without compound 7 [2]: >2; MBEC-Biofilm Elimination, Without compound 9 [2]: >2; MBEC-Biofilm Elimination, With 0.01% compound 1 in 5% EtOH/PBS [2]: >2; MBEC-Biofilm Elimination, With 0.01% compound 2 in 5% EtOH/PBS [2]: 1; MBEC-Biofilm Elimination, With 0.01% compound 7 in 5% EtOH/PBS [2]: 0.5; MBEC-Biofilm Elimination, With 0.05% compound 3 in 5% EtOH/PBS [2]: >2; MBEC-Biofilm Elimination, With 0.05% compound 6 in 5% EtOH/PBS [2]: >2; MBEC-Biofilm Elimination, With 0.1% w/v compound 9 in PBS [2]: >2 |
| CC(C)(O/N=C(\C(=O)N[C@@H]1C(=O)N2C(C(=O)[O-])=C(C[n+]3ccccc3)CS[C@H]12)c1csc(N)n1)C(=O)O [CAZ, ceftazidime] | >4 | >4 | >4 | >4 | >4 | >4 | >4 | >4 | >4 | >4 | >4 | >4 | >4 | >4 | >4 | >4 | >4 | >4 | >4 | >4 | MBEC-Biofilm Elimination, Without compound 1 [2]: >4; MBEC-Biofilm Elimination, Without compound 2 [2]: >4; MBEC-Biofilm Elimination, Without compound 3 [2]: >4; MBEC-Biofilm Elimination, Without compound 6 [2]: >4; MBEC-Biofilm Elimination, Without compound 7 [2]: >4; MBEC-Biofilm Elimination, Without compound 9 [2]: >4; MBEC-Biofilm Elimination, With 0.01% compound 1 in 5% EtOH/PBS [2]: >4; MBEC-Biofilm Elimination, With 0.01% compound 2 in 5% EtOH/PBS [2]: >4; MBEC-Biofilm Elimination, With 0.01% compound 7 in 5% EtOH/PBS [2]: >4; MBEC-Biofilm Elimination, With 0.05% compound 3 in 5% EtOH/PBS [2]: >4; MBEC-Biofilm Elimination, With 0.05% compound 6 in 5% EtOH/PBS [2]: >4; MBEC-Biofilm Elimination, With 0.1% w/v compound 9 in PBS [2]: >4 |
| O=C(N[C@H](CO)[C@H](O)c1ccc([N+](=O)[O-])cc1)C(Cl)Cl [C, chloramphenicol] | >4 | >4 | >4 | >4 | >4 | >4 | >4 | >4 | >4 | >4 | >4 | >4 | >4 | >4 | >4 | >4 | >4 | >4 | >4 | >4 | MBEC-Biofilm Elimination, Without compound 1 [2]: >4; MBEC-Biofilm Elimination, Without compound 2 [2]: >4; MBEC-Biofilm Elimination, Without compound 3 [2]: >4; MBEC-Biofilm Elimination, Without compound 6 [2]: >4; MBEC-Biofilm Elimination, Without compound 7 [2]: >4; MBEC-Biofilm Elimination, Without compound 9 [2]: >4; MBEC-Biofilm Elimination, With 0.01% compound 1 in 5% EtOH/PBS [2]: >4; MBEC-Biofilm Elimination, With 0.01% compound 2 in 5% EtOH/PBS [2]: >4; MBEC-Biofilm Elimination, With 0.01% compound 7 in 5% EtOH/PBS [2]: >4; MBEC-Biofilm Elimination, With 0.05% compound 3 in 5% EtOH/PBS [2]: >4; MBEC-Biofilm Elimination, With 0.05% compound 6 in 5% EtOH/PBS [2]: >4; MBEC-Biofilm Elimination, With 0.1% w/v compound 9 in PBS [2]: >4 |
| C[C@H]1[C@H](NC(=O)/C(=N\OC(C)(C)C(=O)O)c2csc(N)n2)C(=O)N1S(=O)(=O)O [AZT, astreonam] | >4 | >4 | >4 | >4 | >4 | >4 | >4 | >4 | >4 | >4 | >4 | >4 | >4 | >4 | >4 | >4 | >4 | >4 | >4 | >4 | MBEC-Biofilm Elimination, Without compound 1 [2]: >4; MBEC-Biofilm Elimination, Without compound 2 [2]: >4; MBEC-Biofilm Elimination, Without compound 3 [2]: >4; MBEC-Biofilm Elimination, Without compound 6 [2]: >4; MBEC-Biofilm Elimination, Without compound 7 [2]: >4; MBEC-Biofilm Elimination, Without compound 9 [2]: >4; MBEC-Biofilm Elimination, With 0.01% compound 1 in 5% EtOH/PBS [2]: >4; MBEC-Biofilm Elimination, With 0.01% compound 2 in 5% EtOH/PBS [2]: >4; MBEC-Biofilm Elimination, With 0.01% compound 7 in 5% EtOH/PBS [2]: >4; MBEC-Biofilm Elimination, With 0.05% compound 3 in 5% EtOH/PBS [2]: >4; MBEC-Biofilm Elimination, With 0.05% compound 6 in 5% EtOH/PBS [2]: >4; MBEC-Biofilm Elimination, With 0.1% w/v compound 9 in PBS [2]: >4 |

Source: patent publication US20090016990A1, “Antimicrobial Compositions” (priority 2007, published 2009)
